Assay results as given in patent US8906868B2, “Aminoglycoside derivatives” (Rempex Pharmaceuticals, Inc., priority 2010, dated 2014).
Converted amounts (≈) assume the structure as drawn. Like-named read-outs stand apart in the source and are kept apart here.

What was measured:
ECM6003 rmtB = assay: microbe, parasite or virus in culture; format: cell-based, Escherichia coli; conditions: for MIC: Escherichia coli, read-out: Compound MIC on Bacterial Strains: ECM6003 rmtB
Protocol: (§1) To compare microbiological activity of the test compounds, minimum inhibitory concentrations (MIC.s) were determined. Antibiotic MICs were obtained using the broth microdilution method according to Clinical and Laboratory Standards Institute (CLSI) approved guidelines (Methods for dilution antimicrobial susceptibility tests for bacteria that grow aerobically; approved standard—7th ed. CLSI document M7-A7. Clinical and Laboratory Standards Institute, Wayne, Pa., incorporated herein by reference in its entirety). Antibiotics were dissolved as specified by CLSI (Performance standards for antimicrobial susceptibility testing; Seventeenth informational supplement. CLSI document M100-S17. Clinical and Laboratory Standards Institute, Wayne, Pa., incorporated herein by reference in its entirety), and were serially diluted 2-fold in cation adjusted Mueller Hinton Broth (CaMHB) at 2× concentration. Bacterial inoculums were prepared in CaMHB by suspension of a colony from an agar plate that was prepared the previous day to obtain a final concentration of 5×10^5CFU/ml. The plates were incubated for 18 hours at 35° C. […] MIC.s were determined by reading the turbidity of plate wells using a SpectraMax Plus384 plate reader (Molecular Devices, Sunnyvale, Calif., USA) at 600 nm and were confirmed by visual inspection.
(§2) Activity of the test compounds was determined using QC strains and strains with known aminoglycoside resistance mechanisms (TABLE 3). This specific panel contained strains expressing enzymes that covalently modify N2″, N3 and N3′ positions.
The panel also contained a strain expressing ribosomal RNA methylase, RmtB.

ACM1006 acc(6′)-Ib = assay: microbe, parasite or virus in culture; format: cell-based, Acinetobacter baumannii; conditions: Table 4
Protocol: as §1

[1] = system: Escherichia coli (ATCC 25922); assay: MIC, broth microdilution; conditions: for MIC: Escherichia coli
EC1002 aph(3′)-IV = assay: organism not typed; format: cell-based; conditions: for MIC: read-out: Compound MIC on Bacterial Strains: EC1002 aph(3′)-IV
Protocol: as §1, §2

ACM1005 ATCC 19004 = assay: MIC, broth microdilution; format: cell-based, Acinetobacter baumannii; conditions: Table 4
Protocol: as §1

EC1001 acc(6′)-Ib = assay: microbe, parasite or virus in culture; format: cell-based, Escherichia coli; conditions: Table 4; for MIC: Escherichia coli, read-out: Compound MIC on Bacterial Strains: Escherichia coli EC1001 acc(6′)-Ib
Protocol: as §1

[2] = system: ECM6007 aac(6′) + aph(2″); assay: microbe, parasite or virus in culture; format: cell-based, Escherichia coli; conditions: Table 4; for MIC: Escherichia coli, 18 h, read-out: Compound MIC on Bacterial Strains: Escherichia coli ECM6007 aac(6′) + aph(2″)
Protocol: as §1

ECM6006 aph(3′)-III = assay: microbe, parasite or virus in culture; format: cell-based, Escherichia coli; conditions: for MIC: Escherichia coli, read-out: Compound MIC on Bacterial Strains: ECM6006 aph(3′)-III
Protocol: as §1, §2

ECM6009 aac(3)-II = assay: microbe, parasite or virus in culture; format: cell-based, Escherichia coli; conditions: for MIC: Escherichia coli, read-out: Compound MIC on Bacterial Strains: ECM6009 aac(3)-II
Protocol: as §1, §2

ECM6011 aph(3′)-I = assay: microbe, parasite or virus in culture; format: cell-based, Escherichia coli; conditions: for MIC: Escherichia coli, read-out: Compound MIC on Bacterial Strains: ECM6011 aph(3′)-I
Protocol: as §1, §2

ECM6010 ant(2″)-I = assay: microbe, parasite or virus in culture; format: cell-based, Escherichia coli; conditions: for MIC: Escherichia coli, read-out: Compound MIC on Bacterial Strains: ECM6010 ant(2″)-I
Protocol: as §1, §2

[3] = system: Pseudomonas aeruginosa (ATCC 27853); assay: MIC, broth microdilution; conditions: Pseudomonas aeruginosa
[4] = system: Klebsiella pneumonia (ATCC 43816); assay: MIC, broth microdilution; conditions: Klebsiella pneumoniae, ATCC43816, read-out: Compound MIC on Bacterial Strains: K. pneumonia ATCC 43816
[5] = system: Staphylococcus aureus (ATCC 29213); assay: MIC, broth microdilution; conditions: Staphylococcus aureus
PAM3072 aac(6′)-II = assay: microbe, parasite or virus in culture; format: cell-based, Pseudomonas aeruginosa; conditions: Pseudomonas aeruginosa, Table 5; read-out: Compound MIC on Bacterial Strains: Pseudomonas aeruginosa PAM3072 aac(6′)-II
Protocol: as §1

PAM3073 aac(6′)-I = assay: microbe, parasite or virus in culture; format: cell-based, Pseudomonas aeruginosa; conditions: Pseudomonas aeruginosa, Table 5; read-out: Compound MIC on Bacterial Strains: Pseudomonas aeruginosa PAM3073 aac(6′)-I
Protocol: as §1

[6] = system: Acinetobacter baumannii (ATCC 19606); assay: MIC, broth microdilution; conditions: Acinetobacter baumannii, ATCC19606, read-out: Compound MIC on Bacterial Strains: A. baumannii ATCC 19606
[7] = ATCC27853, read-out: Compound MIC on Bacterial Strains: P. aeruginosa ATCC 27853
[8] = ATCC27853, read-out: Compound MIC on Bacterial Strains: Pseudomonas aeruginosa PAM3034 ATCC 27853
[9] = ATCC25922, read-out: Compound MIC on Bacterial Strains: E. coli ATCC 25922
[10] = ATCC25922, read-out: Compound MIC on Bacterial Strains: ECM6000 ATCC 25922
[11] = ATCC29213, read-out: Compound MIC on Bacterial Strains: S. aureus ATCC 29213, QC strain, Table 2
[12] = ATCC29213, read-out: Compound MIC on Bacterial Strains: Staphylococcus aureus SAM1000 ATCC 29213, Table 5
[13] = ATCC25922, read-out: Compound MIC on Bacterial Strains: Escherichia coli ECM6000 ATCC 25922

CNC[C@@H]1CC[C@@H](N)[C@@H](O[C@H]2[C@H](O)[C@@H](O[C@H]3OC[C@](C)(O)[C@H](NC)[C@H]3O)[C@H](N)C[C@@H]2N)O1 [Micronomicin, reference compound]
Compound MIC on Bacterial Strains: ECM6003 rmtB (ECM6003 rmtB; Table 3): C (MIC of greater than 8 μg/ml) | Compound MIC on Bacterial Strains: Acinetobacter baumannii ACM1006 acc(6′)-Ib (ACM1006 acc(6′)-Ib): C (MIC of greater than 8 μg/ml) | Compound MIC on Bacterial Strains: ECM6000 ATCC 25922 ([1]; Table 3): A (MIC of 1 μg/ml or less) | Compound MIC on Bacterial Strains: Escherichia coli ECM6000 ATCC 25922 ([1]; Table 4): A (MIC of 1 μg/ml or less) | Compound MIC on Bacterial Strains: EC1002 aph(3′)-IV (EC1002 aph(3′)-IV): A (key: A: MIC of 1 μg/ml or less; B: MIC of greater than 1 μg/ml to 8 μg/ml; MIC of greater than 8 μg/ml) | Compound MIC on Bacterial Strains: Acinetobacter baumannii ACM1005 ATCC 19004 (ACM1005 ATCC 19004): A (MIC of 1 μg/ml or less) | Compound MIC on Bacterial Strains: Escherichia coli EC1001 acc(6′)-Ib (EC1001 acc(6′)-Ib): C (MIC of greater than 8 μg/ml) | Compound MIC on Bacterial Strains: Escherichia coli ECM6007 aac(6′) + aph(2″) [2]: B (MIC of greater than 1 μg/ml to 8 μg/ml) | Compound MIC on Bacterial Strains: ECM6006 aph(3′)-III (ECM6006 aph(3′)-III): B (key: A: MIC of 1 μg/ml or less; B: MIC of greater than 1 μg/ml to 8 μg/ml; MIC of greater than 8 μg/ml) | Compound MIC on Bacterial Strains: ECM6009 aac(3)-II (ECM6009 aac(3)-II): C (key: A: MIC of 1 μg/ml or less; B: MIC of greater than 1 μg/ml to 8 μg/ml; MIC of greater than 8 μg/ml) | Compound MIC on Bacterial Strains: ECM6011 aph(3′)-I (ECM6011 aph(3′)-I): B (key: A: MIC of 1 μg/ml or less; B: MIC of greater than 1 μg/ml to 8 μg/ml; MIC of greater than 8 μg/ml) | Compound MIC on Bacterial Strains: ECM6010 ant(2″)-I (ECM6010 ant(2″)-I): C (key: A: MIC of 1 μg/ml or less; B: MIC of greater than 1 μg/ml to 8 μg/ml; MIC of greater than 8 μg/ml)

CN[C@@H]1[C@@H](O)[C@@H](O[C@@H]2[C@@H](O)[C@H](O[C@H]3O[C@H](CN)CC[C@H]3N)[C@@H](N)C[C@H]2NC(=O)[C@@H](O)[C@H](N)CO)OC[C@]1(C)O [Compound 20, (2S,3R)-3-amino-N-((1R,2S,3S,4R,5S)-5-amino-4-((2R,3R,6S)-3-amino-6-(aminomethyl)tetrahydro-2H-pyran-2-yloxy)-2-((2R,3R,4R,5R)-3,5-dihydroxy-5-methyl-4-(methylamino)tetrahydro-2H-pyran-2-yloxy)-3-hydroxycyclohexyl)-2,4-dihydroxybutanamide]
MIC (ECM6003 rmtB; Table 3): > 8 µg/mL | MIC [3, 7]: 1 to 8 µg/mL (≈ 1.76 to 14.1 µM) | MIC [3, 8]: 1 to 8 µg/mL (≈ 1.76 to 14.1 µM) | MIC [4]: < 1 µg/mL | MIC [1, 9]: 1 to 8 µg/mL (≈ 1.76 to 14.1 µM) | MIC [1, 10]: 1 to 8 µg/mL (≈ 1.76 to 14.1 µM) | MIC (EC1002 aph(3′)-IV): 1 to 8 µg/mL (≈ 1.76 to 14.1 µM) | MIC [5, 11]: 1 to 8 µg/mL (≈ 1.76 to 14.1 µM) | MIC [5, 12]: 1 to 8 µg/mL (≈ 1.76 to 14.1 µM) | MIC (ECM6006 aph(3′)-III): 1 to 8 µg/mL (≈ 1.76 to 14.1 µM) | MIC (ECM6009 aac(3)-II): < 1 µg/mL | MIC (ECM6011 aph(3′)-I): 1 to 8 µg/mL (≈ 1.76 to 14.1 µM) | MIC (ECM6010 ant(2″)-I): 1 to 8 µg/mL (≈ 1.76 to 14.1 µM) | MIC (PAM3072 aac(6′)-II): > 8 µg/mL | MIC (PAM3073 aac(6′)-I): > 8 µg/mL | MIC [6]: > 8 µg/mL

NC[C@@H]1CCC(N)[C@@H](OC2C(O)C(O[C@H]3OC(CO)C(O)[C@H](N)C3O)[C@H](NC(=O)C3(O)CNNC3)C[C@@H]2N)O1 (stereo partly shown) [Compound 28]
fold increased resistance conferred by RmtB (ECM6003 rmtB; strain expressing ribosomal RNA methylase RmtB): 8 fold

CN[C@@H]1[C@@H](O)[C@@H](O[C@@H]2[C@@H](O)[C@H](O[C@H]3O[C@H](CNCCO)CC[C@H]3N)[C@@H](N)C[C@H]2NC(=O)[C@@H](O)CNN)OC[C@]1(C)O [Compound 41, (S)—N-((1R,2S,3S,4R,5S)-5-amino-4-((2R,3R,6S)-3-amino-6-((2-hydroxyethylamino)methyl)tetrahydro-2H-pyran-2-yloxy)-2-((2R,3R,4R,5R)-3,5-dihydroxy-5-methyl-4-(methylamino)tetrahydro-2H-pyran-2-yloxy)-3-hydroxycyclohexyl)-3-hydrazinyl-2-hydroxypropanamide]
MIC (ECM6003 rmtB; Table 3): > 8 µg/mL | MIC [3, 7]: > 8 µg/mL | MIC [3, 8]: > 8 µg/mL | MIC [4]: 1 to 8 µg/mL (≈ 1.68 to 13.4 µM) | MIC [1, 9]: 1 to 8 µg/mL (≈ 1.68 to 13.4 µM) | MIC [1, 10]: 1 to 8 µg/mL (≈ 1.68 to 13.4 µM) | MIC [1, 13]: 1 to 8 µg/mL (≈ 1.68 to 13.4 µM) | MIC (EC1002 aph(3′)-IV): 1 to 8 µg/mL (≈ 1.68 to 13.4 µM) | MIC [5, 11]: 1 to 8 µg/mL (≈ 1.68 to 13.4 µM) | MIC [5, 12]: 1 to 8 µg/mL (≈ 1.68 to 13.4 µM) | MIC (EC1001 acc(6′)-Ib): > 8 µg/mL | MIC [2]: 1 to 8 µg/mL | MIC (ECM6006 aph(3′)-III): > 8 µg/mL | MIC (ECM6009 aac(3)-II): > 8 µg/mL | MIC (ECM6011 aph(3′)-I): 1 to 8 µg/mL (≈ 1.68 to 13.4 µM) | MIC (ECM6010 ant(2″)-I): 1 to 8 µg/mL (≈ 1.68 to 13.4 µM) | MIC (PAM3072 aac(6′)-II): > 8 µg/mL | MIC (PAM3073 aac(6′)-I): > 8 µg/mL | MIC [6]: > 8 µg/mL

CN[C@@H]1[C@@H](O)[C@@H](O[C@@H]2[C@@H](O)[C@H](O[C@H]3O[C@H](CN)CC[C@H]3N)[C@@H](N)C[C@H]2NC(=O)[C@@H](O)[C@H](N)CN)OC[C@]1(C)O [Compound 3, (2S,3R)-3,4-diamino-N-((1R,2S,3S,4R,5S)-5-amino-4-((2R,3R,6S)-3-amino-6-(aminomethyl)tetrahydro-2H-pyran-2-yloxy)-2-((2R,3R,4R,5R)-3,5-dihydroxy-5-methyl-4-(methylamino)tetrahydro-2H-pyran-2-yloxy)-3-hydroxycyclohexyl)-2-hydroxybutanamide]
MIC (ACM1006 acc(6′)-Ib; Acinetobacter baumannii, read-out: Compound MIC on Bacterial Strains: Acinetobacter baumannii ACM1006 acc(6′)-Ib): 1 to 8 µg/mL (≈ 1.77 to 14.1 µM) | MIC [3, 7]: < 1 µg/mL | MIC [4]: < 1 µg/mL | MIC [1, 9]: < 1 µg/mL | MIC [1, 13]: 1 to 8 µg/mL (≈ 1.77 to 14.1 µM) | MIC [5, 11]: < 1 µg/mL | MIC (ACM1005 ATCC 19004; Acinetobacter baumannii, ATCC19004, read-out: Compound MIC on Bacterial Strains: Acinetobacter baumannii ACM1005 ATCC 19004): 1 to 8 µg/mL (≈ 1.77 to 14.1 µM) | MIC (EC1001 acc(6′)-Ib): > 8 µg/mL | MIC [2]: < 1 µg/mL | MIC [6]: > 8 µg/mL
